This passage reports Activity results from ChEMBL document CHEMBL1149746, “Synthesis of ellagic acid O-alkyl derivatives and isolation of ellagic acid as a tetrahexanoyl derivative from Fragaria ananassa” (J Nat Prod, 1992).

Calls of active or inactive are those of the source. The calls are words filed in the database; no cut-off is given here.

The subject of this assay is Mus musculus. Kind of assay: Anticarcinogenic activity in A/J mouse assessed as inhibition of Benzo(a)pyrene-induced tumorigenesis at 0.4 g/kg in diet for 21 days by mouse lung tumor inhibition study. It is filed as functional, organism-based.

Turning to `CC(=O)OC[C@H]1O[C@@H](Oc2c(OC(C)=O)cc3c(=O)oc4c(O[C@@H]5O[C@H](COC(C)=O)[C@@H](OC(C)=O)[C@H](OC(C)=O)[C@H]5OC(C)=O)c(OC(C)=O)cc5c(=O)oc2c3c45)[C@H](OC(C)=O)[C@@H](OC(C)=O)[C@@H]1OC(C)=O`, the outcome was Active.

For the compound `CCCCCCCCOc1c(OC(=O)CCCCC)cc2c(=O)oc3c(OCCCCCCCC)c(OC(=O)CCCCC)cc4c(=O)oc1c2c34`, the outcome was Active.

Take `O=c1oc2c(O)c(O)cc3c(=O)oc4c(O)c(O)cc1c4c23`: the outcome was Active.
